Where two headings read alike, the source gives them in different places. No end group written: not given here.
Tests used:
[1] = tested on: β2ARs in permeabilized A431 cells; experiment: Phosphorylation of β2ARs in permeabilized A431 cells; type: cell-based, human; details: 1 μM isoproterenol, absence of heparin
Description: FIG. 8. Phosphorylation of β2ARs in permeabilized A431 cells. […] FIG. 8A: Autoradiogram obtained after a 10-day exposure at −70° C. FIG. 8B: Transverse densitometric scan of the autoradiogram.
β2ARs in permeabilized A431 cells were phosphorylated as follows. Permeabilized cells (4×10^8) in 10 ml of KG-A buffer containing 1 mCi (1 Ci=37 GBq) of [γ-^32P]ATP were incubated with or without 1 μM (−)-isoproterenol (and other compounds as indicated) for 10 min at 37° C. All buffers used in these experiments contained 5 μg of soybean tryspin inhibitor, 5 μg of leupeptin, and 10 μg of benzamidine per ml and 0.1 mM phenylmethylsulfonyl fluoride. […] After three identical washing steps, crude membranes were prepared as above.
Aliquots of the samples (≈60 fmol of β2ARs) were desalted over Sephadex G-50 and incubated for 2 hr at 20° C. with 200 pM of the ligand with or without 10 μM alprenolol. Free ligand was removed by desalting as above, and the samples were irradiated with UV light for 3 min. The samples were loaded on the same gel as the samples described above.

[2] = tested on: adenylyl cyclase in membranes of A431 cells; experiment: cells; details: Homo sapiens
Description: FIG. 5. […] Cells were incubated for 10 min with (desensitized) (●) or without (control) (◯) 1 μM (−)-isoproterenol as detailed. Adenylyl cyclase activities of membranes prepared from the cells were measured in the presence of various concentrations of (−)-isoproterenol and were expressed as percent of the activity in the presence of 10 mM NaF. […] Data are means±SEM of three independent experiments.
Desensitization of β2ARs in A431 cells was effected as follows. Permeabilized cells in KG-A buffer (or, for controls, intact cells in PBS) were incubated with or without 1 μM (−)-isoproterenol for 10 min or the indicated times (4×10^7 cells per ml). The incubation was terminated by addition of 10 vol of ice-cold KG buffer (or PBS, respectively), followed by centrifugation at 1000×g for 5 min. After three identical washes, cells were disrupted with a Polytron homogenizer in 5 mM Tris-HCl, pH 7.4/2 mM EDTA. Crude membranes were prepared by spinning the supernatant after low-speed centrifugation (1000×g for 5 min) at 40,000×g for 20 min.
Adenylyl cyclase activity in the membranes was determined as described by Salomon et al (Anal. Biochem. (1974) 58:541-548). The free Mg^2+ concentration in the assay was 4 mM.
Concentration-response curves were analyzed by nonlinear curve-fitting to the Hill equation as described (Lohse et al (1986) Mol. Pharmacol. 30:403-409). Adenylyl cyclase activity was expressed as the percentage of the activity in the presence of 10 mM NaF. Since NaF stimulates adenylyl cyclase via the stimulatory guanine nucleotide binding protein, Gs, this normalizes for effects that occur at the level of Gs or the cyclase (i.e., which effects represent heterologous desensitization). Desensitization was assessed by measuring the loss of maximal stimulation by isoproterenol [determined with 10 μM (−)-isoproterenol] and was calculated as [1−stimulation (desensitized)/stimulation (control)]×100. For example, a decrease from 60% to 40% of NaF-stimulated activity corresponds to a desensitization of [1−(40/60)]×100=33%.

[3] = target: T1, βAR kinase (Bos taurus, UniProt P21146); experiment: Phosphorylation of purified reconstituted β2ARs by purified βAR kinase (Example II); type: biochemical, bovine; details: 100 μM
T1 construct: βAR kinase was purified from bovine cerebral cortex; from tissue; host or cells: bovine cerebral cortex
T1 sequence (P21146 1-689): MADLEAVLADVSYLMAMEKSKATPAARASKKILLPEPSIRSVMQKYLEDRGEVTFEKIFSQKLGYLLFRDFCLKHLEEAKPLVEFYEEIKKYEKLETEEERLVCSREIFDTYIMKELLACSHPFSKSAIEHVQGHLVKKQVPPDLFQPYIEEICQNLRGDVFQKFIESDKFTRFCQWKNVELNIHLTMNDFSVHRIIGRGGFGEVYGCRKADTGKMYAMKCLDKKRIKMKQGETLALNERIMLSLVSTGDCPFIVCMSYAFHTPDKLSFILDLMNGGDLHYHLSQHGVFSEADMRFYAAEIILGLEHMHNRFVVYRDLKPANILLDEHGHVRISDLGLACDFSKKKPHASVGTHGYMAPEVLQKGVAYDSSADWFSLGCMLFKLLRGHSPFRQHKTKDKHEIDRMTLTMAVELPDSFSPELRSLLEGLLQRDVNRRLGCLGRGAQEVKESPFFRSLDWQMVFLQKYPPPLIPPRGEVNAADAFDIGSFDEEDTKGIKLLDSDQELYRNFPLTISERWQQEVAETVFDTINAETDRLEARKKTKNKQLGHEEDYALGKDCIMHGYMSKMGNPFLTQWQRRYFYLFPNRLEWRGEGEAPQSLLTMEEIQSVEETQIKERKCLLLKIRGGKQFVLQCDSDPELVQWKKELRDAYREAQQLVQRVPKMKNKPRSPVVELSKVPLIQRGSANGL
Description: FIG. 7. […] (Inset) Relevant section of a representative autoradiogram. Data are means±SEM of three independent experiments. […] Desensitization was measured as the percent loss of stimulation by 10 μM (−)-isoproterenol of adenylyl cyclase activity in membranes. […] Data are means±SEM of four independent experiments.
Purified β2ARs were inserted into phosphatidylcholine vesicles by chromatography on Extracti-gel, followed by polyethylene glycol treatment and centrifugation at 280,000×g for 90 min (Cerione et al (1984) Biochemistry 23:4519-4525). Phosphorylation of the reconstituted receptors by purified βAR kinase was done in the presence of 50 μM (−)-isoproterenol as described (Benovic et al (1987) J. Biol. Chem. 262:9026-9032). Subsequently, the samples were subjected to sodium dodecyl sulfate polyacrylamide gel electrophoresis on 10% gels (Laemmli (1970) Nature 227:680-685). The phosphorylated β2ARs were visualized by autoradiography, and the corresponding bands were cut out and their content of ^32P quantified.

[4] = tested on: β2ARs in permeabilized A431 cells; experiment: Desensitization of β2ARs in permeabilized A431 cells; type: cell-based, human
Description: Permeabilization of cells was accomplished as follows. Human epidermoid carcinoma A431 cells were grown to about 95% confluence in Dulbecco's modified Eagle's medium supplemented with 10% fetal calf serum. Cells were harvested with collagenase, washed three times with calcium-free phosphate-buffered saline (PBS), then washed twice in 150 mM potassium glutamate/10 mM Hepes/5 mM EGTA/7 mM MgCl2, pH 7.1 (KG buffer), and finally resuspended in KG buffer supplemented with 5 mM glucose and 2 mM ATP (KG-A buffer) at a density of 4×10^7 cells per ml.
At 4×10^7 cells per ml, about 0.015% digitonin was necessary to achieve permeabilization of >95% cells as assessed by staining with trypan blue. In all experiments, digitonin was added stepwise until >95% of the cells were trypan blue positive.

[5] = tested on: β2ARs in intact A431 cells; experiment: Desensitization of β2ARs in intact A431 cells; type: cell-based, human; details: data not shown
[6] = target: T1, βAR kinase; experiment: Inhibition of β2AR phosphorylation by βAR kinase by synthetic peptides (Example III); type: biochemical, bovine; details: β2AR as substrate; read-out: IC50 (μM), first intracellular loop peptides as inhibitors of βAR kinase
Description: FIG. 13. Inhibition of β2AR phosphorylation by synthetic peptides. Reconstituted β2AR (˜0.4 pmol) was incubated for 30 min at 30° with purified βAR kinase (˜30 ng) in the presence of 50 mM Tris-HCl, pH 7.5, 2 mM EDTA, 10 mM NaCl, 5 mM MgCl2, 5 mM sodium phosphate, 50 μM (−)-isoproterenol and 0.10 mM [γ^32P]ATP (2.0 cpm/fmol). Synthetic β2AR peptides were varied from 0 to 1 mM and included CI (Δ), CII (▴), CIII-2 (◯) and CT-1 (●). Reactions were stopped by the addition of […]. ^32P-labeled receptor was determined by cutting and counting the dried gel following autoradiography.
The β2-adrenergic receptor from hamster lung was purified to apparent homogeneity by sequential affinity and high performance liquid chromatography as described (Benovic et al (1984) Biochemistry 23:4510-4518). The purified receptor was reinserted into phosphatidylcholine vesicles as previously described (Cerione et al (1983) Nature 306:562-566). The protein-lipid pellets were resuspended in 20 mM Tris-HCl, pH 7.2, 2 mM EDTA and used as a substrate for the βAR kinase.
βAR kinase was purified from bovine cerebral cortex by modification of a previously described procedure (Benovic et al (1987) J. Biol. Chem. 262:9026-9032). Briefly, 250 g of bovine cortex was homogenized and the resulting high speed supernatant fraction was precipitated with 13-26% ammonium sulfate. This material was initially chromatographed on an Ultrogel AcA34 column equilibrated with 5 mM Tris-HCl, pH 7.5, 2 mM EDTA, 5 μg/ml leupeptin, 5 μg/ml pepstatin, 15 μg/ml benzamidine, 0.2 mM phenylmethyl sulfonyl fluoride (buffer A). The peak activity was diluted 1:1 with buffer A containing 0.02% triton X-100 and applied to a DEAE Sephacel column. Elution was accomplished with a 0-80 mM NaCl gradient in buffer A containing triton X-100. The peak activity was then applied directly to a CM Fractogel column and eluted with a 0-100 mM NaCl gradient in buffer A containing triton X-100. The purified kinase was stored at 4° C.
The inhibition of substrate phosphorylation by βAR kinase in the presence of synthetic peptides was assayed as follows. Reconstituted βAR (0.2-1 pmol/inclubation) was incubated with βAR kinase (10-30 ng) in a buffer containing 50 mM Tris-HCl, pH 7.5, 2 mM EDTA, 10 mM NaCl, 5 mM MgCl2, 5 mM sodium phosphate, 50 μM (−)-isoproterenol, 0.10 mM [γ-^32P]ATP (1-3 cpm/fmol) at 30° C. for 30 min. Synthetic β2AR peptides were varied in concentration from 0 to 2 mM. Reactions were quenched by the addition of SDS sample buffer followed by gel electrophoresis. In some experiments urea treated rod outer segments (Wilden et al (1982) Biochemistry 21:3014-3022; Shichi et al (1978) J. Biol. Chem. 253:7040-7046) were used as the substrate for βAR kinase. To further define the specificity of the peptide inhibition, phosvitin, casein (see Example I) and the synthetic peptides CT-2 and CT-3 were used as substrates for βAR kinase.
SDS polyacrylamide gel electrophoresis was performed by the method of Laemmli (Nature (1970) 227:[…]) using 10 or 15% homogeneous slab gels. SDS sample buffer contained 8% SDS, 10% glycerol, 5% β-mercaptoethanol, 25 mM Tris-HCl, pH 6.5 and 0.003% bromphenol blue. SDS urea polyacrylamide gel electrophoresis was carried out using 6.5 M urea, 0.1% SDS, 100 mM H3PO4, pH 6.8 with Tris-HCl and 9% acrylamide (Swank et al (1971) Anal. Biochem. 39:462). SDS urea sample buffer contained 1% SDS, 8M urea, 10 mM H3PO4, pH 6.8 with Tris-HCl, 1% β-mercaptoethanol and 0.003% bromphenol blue.

Compound | increase in the phosphorylation of the β2ARs [1] | Emax ([2]; A-431, 10 min, read-out: desensitization (loss of maximal stimulation), 1 μM isoproterenol 10 min 37° C., both intact and permeabilized cells) | EC50 ([2]; A-431, read-out: EC50, adenylyl cyclase stimulation, control intact cells) | EC50 ([2]; A-431, read-out: EC50, adenylyl cyclase stimulation, control permeabilized cells) | EC50 ([2]; A-431, read-out: EC50, adenylyl cyclase stimulation, desensitized intact cells) | EC50 ([2]; A-431, read-out: EC50, adenylyl cyclase stimulation, desensitized permeabilized cells) | Emax ([2]; A-431, read-out: Emax, maximal stimulation over basal in percent of activity with 10 mM NaF, control intact cells) | Emax ([2]; A-431, read-out: Emax, maximal stimulation over basal in percent of activity with 10 mM NaF, control permeabilized cells) | Emax ([2]; A-431, read-out: Emax, maximal stimulation over basal in percent of activity with 10 mM NaF, desensitized intact cells) | Emax ([2]; A-431, read-out: Emax, maximal stimulation over basal in percent of activity with 10 mM NaF, desensitized permeabilized cells) | inhibition at 100 µM [3] | Inhibition of Desensitization, % ([4]; 100 μM) | effect on time course of desensitization ([4]; 100 μM peptide, 1 μM (−)-isoproterenol) | effect on desensitization in intact cells [5] | IC50 [6]
CC(C)NC[C@H](O)c1ccc(O)c(O)c1 [isoproterenol, (−)-isoproterenol] | 5 fold | ~30% | 200 nM | 130 nM | 300 nM | 190 nM | 56% | 62% | 40% | 43% | – | – | – | – | –
AIAKFERLQTVTNYF [β2AR-(57-71)] | – | – | – | – | – | – | – | – | – | – | 80 ± 13% | 52 ± 12% | markedly slowed the rate of desensitization | Neither compound affected desensitization | 62 µM
